Test results from patent US20220009920A1 (GB005, Inc., priority 2020, published 2022).

Experiments:
Assay in all cases: Large panel kinase profiling
Assay type in all cases: biochemical
Conditions in all cases: 1 μM test article, 1 mM ATP
[1] = biological target: MAP3K1 (Homo sapiens, UniProt Q13233)
In short: (§1)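 One compound concentration (1 μM) was screened against each kinase at 1 mM ATP using PhosphoSens CSox-Sensor detection, at 30° C., with fluorescence read every 1 min (Ex 360 nm/Em 485 nm).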

[2] = biological target: BMP2K/BIKE (Homo sapiens, UniProt Q9NSY1)
In short: as §1

[3] = biological target: PKN3 (Homo sapiens, UniProt Q6P5Z2)
PKN3, sequence (Q6P5Z2 whole entry, species assumed): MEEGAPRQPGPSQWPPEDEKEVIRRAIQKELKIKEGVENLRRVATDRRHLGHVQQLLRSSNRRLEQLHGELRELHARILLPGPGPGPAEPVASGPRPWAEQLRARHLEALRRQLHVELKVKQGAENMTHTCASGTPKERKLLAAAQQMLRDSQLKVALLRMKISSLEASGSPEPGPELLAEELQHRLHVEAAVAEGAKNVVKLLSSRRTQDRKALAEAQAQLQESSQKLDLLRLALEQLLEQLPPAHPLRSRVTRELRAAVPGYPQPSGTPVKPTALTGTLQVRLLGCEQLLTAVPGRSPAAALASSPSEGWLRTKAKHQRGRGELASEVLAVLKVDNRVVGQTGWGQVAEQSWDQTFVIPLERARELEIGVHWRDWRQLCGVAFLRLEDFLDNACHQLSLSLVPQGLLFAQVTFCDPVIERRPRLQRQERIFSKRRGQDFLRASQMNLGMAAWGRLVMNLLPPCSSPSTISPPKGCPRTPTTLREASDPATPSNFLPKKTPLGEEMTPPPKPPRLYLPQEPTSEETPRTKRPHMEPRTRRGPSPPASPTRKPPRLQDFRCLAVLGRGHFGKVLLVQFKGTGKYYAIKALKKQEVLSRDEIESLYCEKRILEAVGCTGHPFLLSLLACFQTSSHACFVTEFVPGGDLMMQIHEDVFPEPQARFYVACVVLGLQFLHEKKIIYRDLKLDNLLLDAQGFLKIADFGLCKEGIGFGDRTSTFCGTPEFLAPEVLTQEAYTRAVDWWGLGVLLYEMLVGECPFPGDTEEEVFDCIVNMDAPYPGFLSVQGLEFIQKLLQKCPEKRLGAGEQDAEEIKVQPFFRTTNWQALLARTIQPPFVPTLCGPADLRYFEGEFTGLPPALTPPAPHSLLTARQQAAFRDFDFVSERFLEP
In short: as §1

[4] = biological target: T1, GRK3 (Homo sapiens, UniProt P35626)
T1 construct: AssayQuant Technologies, Inc. (service provider)
T1 sequence (P35626 1-688): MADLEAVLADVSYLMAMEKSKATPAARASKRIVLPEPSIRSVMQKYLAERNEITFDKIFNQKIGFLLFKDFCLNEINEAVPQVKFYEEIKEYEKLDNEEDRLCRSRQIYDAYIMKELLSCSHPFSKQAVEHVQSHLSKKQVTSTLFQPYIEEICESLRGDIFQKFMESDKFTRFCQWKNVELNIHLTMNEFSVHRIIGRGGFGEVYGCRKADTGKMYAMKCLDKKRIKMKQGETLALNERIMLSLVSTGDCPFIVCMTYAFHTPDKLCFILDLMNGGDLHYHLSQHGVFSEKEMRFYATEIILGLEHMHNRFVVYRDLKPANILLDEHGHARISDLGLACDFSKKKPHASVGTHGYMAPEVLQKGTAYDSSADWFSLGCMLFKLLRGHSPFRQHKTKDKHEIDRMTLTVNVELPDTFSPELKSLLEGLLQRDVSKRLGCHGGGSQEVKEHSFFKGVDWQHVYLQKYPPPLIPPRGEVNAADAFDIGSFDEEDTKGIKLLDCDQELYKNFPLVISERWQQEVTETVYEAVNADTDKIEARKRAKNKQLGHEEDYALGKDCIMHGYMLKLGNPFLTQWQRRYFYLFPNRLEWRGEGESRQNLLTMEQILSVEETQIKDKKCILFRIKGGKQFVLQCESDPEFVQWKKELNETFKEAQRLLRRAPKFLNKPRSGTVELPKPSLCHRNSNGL
In short: as §1

[5] = biological target: ERBB2/HER2 (Homo sapiens, UniProt P04626)
ERBB2/HER2, sequence (P04626 23-1255): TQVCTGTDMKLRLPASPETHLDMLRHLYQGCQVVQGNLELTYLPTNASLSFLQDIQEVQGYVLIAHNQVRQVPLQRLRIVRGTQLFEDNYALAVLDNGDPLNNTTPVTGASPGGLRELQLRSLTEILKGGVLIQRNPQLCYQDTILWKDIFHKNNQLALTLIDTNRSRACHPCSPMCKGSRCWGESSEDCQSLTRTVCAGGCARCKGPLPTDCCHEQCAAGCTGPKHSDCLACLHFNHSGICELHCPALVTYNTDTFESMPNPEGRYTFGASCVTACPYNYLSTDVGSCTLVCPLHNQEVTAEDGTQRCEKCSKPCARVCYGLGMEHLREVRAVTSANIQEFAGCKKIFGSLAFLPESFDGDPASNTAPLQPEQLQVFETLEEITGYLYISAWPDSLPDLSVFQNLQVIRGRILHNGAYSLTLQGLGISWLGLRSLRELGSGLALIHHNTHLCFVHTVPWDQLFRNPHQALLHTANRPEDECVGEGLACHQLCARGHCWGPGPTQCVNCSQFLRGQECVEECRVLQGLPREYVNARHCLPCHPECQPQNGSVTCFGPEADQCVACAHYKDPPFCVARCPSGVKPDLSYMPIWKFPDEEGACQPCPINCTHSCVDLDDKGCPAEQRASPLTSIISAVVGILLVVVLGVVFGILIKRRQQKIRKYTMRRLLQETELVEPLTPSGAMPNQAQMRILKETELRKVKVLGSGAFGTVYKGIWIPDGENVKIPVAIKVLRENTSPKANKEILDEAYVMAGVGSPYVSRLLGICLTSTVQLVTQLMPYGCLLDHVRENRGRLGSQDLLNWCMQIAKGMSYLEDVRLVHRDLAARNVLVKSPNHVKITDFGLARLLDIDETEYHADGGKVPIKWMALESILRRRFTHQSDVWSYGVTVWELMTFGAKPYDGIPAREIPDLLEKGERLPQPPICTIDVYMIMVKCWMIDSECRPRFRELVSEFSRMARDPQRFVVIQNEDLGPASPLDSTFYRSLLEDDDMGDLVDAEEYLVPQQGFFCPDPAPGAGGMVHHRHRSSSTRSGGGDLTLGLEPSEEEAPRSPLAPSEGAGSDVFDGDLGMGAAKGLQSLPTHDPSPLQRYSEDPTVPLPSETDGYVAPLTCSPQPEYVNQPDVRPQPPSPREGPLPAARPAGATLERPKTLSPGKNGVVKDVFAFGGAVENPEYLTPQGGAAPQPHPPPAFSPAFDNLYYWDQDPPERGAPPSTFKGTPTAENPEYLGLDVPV
In short: as §1

[6] = biological target: LIMK1 (Homo sapiens, UniProt P53667)
LIMK1, sequence (P53667 whole entry, species assumed): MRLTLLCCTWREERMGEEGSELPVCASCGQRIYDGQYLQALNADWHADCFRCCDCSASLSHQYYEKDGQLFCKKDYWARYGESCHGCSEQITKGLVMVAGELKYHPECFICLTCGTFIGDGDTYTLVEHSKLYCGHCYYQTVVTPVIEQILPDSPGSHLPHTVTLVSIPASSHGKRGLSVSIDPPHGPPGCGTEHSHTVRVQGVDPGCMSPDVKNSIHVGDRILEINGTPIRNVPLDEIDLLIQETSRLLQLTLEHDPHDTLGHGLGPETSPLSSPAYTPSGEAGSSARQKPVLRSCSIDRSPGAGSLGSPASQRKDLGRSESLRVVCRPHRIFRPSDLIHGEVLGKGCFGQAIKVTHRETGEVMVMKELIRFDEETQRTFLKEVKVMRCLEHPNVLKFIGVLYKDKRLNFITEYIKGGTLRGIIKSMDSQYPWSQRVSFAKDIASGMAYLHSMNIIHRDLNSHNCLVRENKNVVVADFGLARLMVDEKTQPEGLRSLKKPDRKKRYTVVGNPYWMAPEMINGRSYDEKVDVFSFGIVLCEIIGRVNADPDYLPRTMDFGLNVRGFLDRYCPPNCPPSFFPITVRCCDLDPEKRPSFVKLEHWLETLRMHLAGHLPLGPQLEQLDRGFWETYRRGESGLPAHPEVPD
In short: as §1

[7] = biological target: PRKACA (Homo sapiens, UniProt P17612)
In short: as §1

[8] = biological target: T2, PRKCI/PKCI (Homo sapiens, UniProt P41743)
T2 sequence (P41743 1-596): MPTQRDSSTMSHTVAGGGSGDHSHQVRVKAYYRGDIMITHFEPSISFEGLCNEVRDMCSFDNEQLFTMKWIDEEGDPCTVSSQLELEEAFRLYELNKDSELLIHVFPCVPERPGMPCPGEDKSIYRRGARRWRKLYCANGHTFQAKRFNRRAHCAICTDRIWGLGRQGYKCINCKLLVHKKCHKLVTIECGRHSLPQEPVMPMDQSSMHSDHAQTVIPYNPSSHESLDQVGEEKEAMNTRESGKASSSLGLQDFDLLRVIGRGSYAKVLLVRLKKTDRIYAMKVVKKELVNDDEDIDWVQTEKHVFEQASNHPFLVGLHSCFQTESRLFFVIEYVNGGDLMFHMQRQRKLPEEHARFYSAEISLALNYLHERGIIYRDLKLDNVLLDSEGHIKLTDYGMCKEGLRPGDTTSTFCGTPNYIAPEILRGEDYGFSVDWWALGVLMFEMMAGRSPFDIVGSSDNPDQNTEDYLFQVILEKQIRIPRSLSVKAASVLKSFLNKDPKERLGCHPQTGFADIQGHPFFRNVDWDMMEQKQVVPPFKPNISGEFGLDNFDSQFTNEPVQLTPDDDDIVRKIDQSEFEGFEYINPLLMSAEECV
In short: as §1

[9] = biological target: T3, MINK1 (Homo sapiens, UniProt Q8N4C8)
T3 construct: AssayQuant Technologies, Inc. (assay service)
T3 sequence (Q8N4C8 whole entry, species assumed): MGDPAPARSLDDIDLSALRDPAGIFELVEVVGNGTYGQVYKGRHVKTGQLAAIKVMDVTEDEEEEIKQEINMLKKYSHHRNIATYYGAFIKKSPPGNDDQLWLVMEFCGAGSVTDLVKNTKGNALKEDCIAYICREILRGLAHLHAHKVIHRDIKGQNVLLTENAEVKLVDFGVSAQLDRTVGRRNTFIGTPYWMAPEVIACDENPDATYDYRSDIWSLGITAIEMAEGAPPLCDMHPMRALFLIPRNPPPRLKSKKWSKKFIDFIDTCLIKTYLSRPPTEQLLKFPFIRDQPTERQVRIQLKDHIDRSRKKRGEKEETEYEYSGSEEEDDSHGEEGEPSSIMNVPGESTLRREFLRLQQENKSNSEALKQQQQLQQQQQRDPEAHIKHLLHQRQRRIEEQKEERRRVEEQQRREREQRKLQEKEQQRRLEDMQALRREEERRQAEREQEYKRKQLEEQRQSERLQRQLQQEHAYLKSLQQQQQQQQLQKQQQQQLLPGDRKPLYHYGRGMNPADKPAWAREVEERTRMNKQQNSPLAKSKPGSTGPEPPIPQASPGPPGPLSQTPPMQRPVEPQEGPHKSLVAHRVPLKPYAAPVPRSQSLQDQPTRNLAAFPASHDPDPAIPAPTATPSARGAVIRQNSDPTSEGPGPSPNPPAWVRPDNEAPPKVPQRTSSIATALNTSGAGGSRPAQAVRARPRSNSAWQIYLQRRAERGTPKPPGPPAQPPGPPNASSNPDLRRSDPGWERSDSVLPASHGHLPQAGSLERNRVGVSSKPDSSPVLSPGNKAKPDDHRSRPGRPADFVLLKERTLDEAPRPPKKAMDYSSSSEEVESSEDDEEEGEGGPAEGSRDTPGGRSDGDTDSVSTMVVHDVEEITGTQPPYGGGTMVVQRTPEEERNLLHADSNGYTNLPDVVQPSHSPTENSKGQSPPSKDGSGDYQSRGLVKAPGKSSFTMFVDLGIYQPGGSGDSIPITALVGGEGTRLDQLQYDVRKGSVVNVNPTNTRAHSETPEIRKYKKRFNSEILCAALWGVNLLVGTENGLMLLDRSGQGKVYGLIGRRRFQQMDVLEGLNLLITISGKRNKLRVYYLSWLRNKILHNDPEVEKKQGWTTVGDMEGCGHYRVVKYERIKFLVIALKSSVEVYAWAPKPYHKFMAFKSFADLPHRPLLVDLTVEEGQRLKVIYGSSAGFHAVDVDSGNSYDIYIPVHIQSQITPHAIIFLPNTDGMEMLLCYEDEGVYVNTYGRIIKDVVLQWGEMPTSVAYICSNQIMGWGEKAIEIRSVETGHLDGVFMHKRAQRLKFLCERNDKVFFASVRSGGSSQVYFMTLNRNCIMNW
In short: as §1

| Compound | inhibition at 1 µM [1] [%] | inhibition at 1 µM [2] [%] | inhibition at 1 µM [3] [%] | inhibition at 1 µM [4] [%] | inhibition at 1 µM [5] [%] | inhibition at 1 µM [6] [%] | inhibition at 1 µM [7] [%] | inhibition at 1 µM [8] [%] | inhibition at 1 µM [9] [%] |
| --- | --- | --- | --- | --- | --- | --- | --- | --- | --- |
| C=CC(=O)N1CCCC(c2c(F)cc(C(N)=O)c3[nH]c4c(c23)CCCCC4)C1 (single isomer, unassigned) [Compound 5-6] | 6.4 | -18.6 | 5.7 | -25.6 | -2.2 | -7.2 | 11.4 | -0.6 | -2.8 |
| C=CC(=O)N1CCC[C@@H](c2c(F)cc(C(N)=O)c3[nH]c4c(c23)CC2(CC4)CC2)C1 [Compound 6-2, (S)-5-(1-acryloylpiperidin-3-yl)-6-fluoro-1,2,4,9-tetrahydrospiro[carbazole-3,1′-cyclopropane]-8-carboxamide] | -7.9 | -12.3 | -9.4 | -48.3 | 11.9 | -14.7 | 12.2 | 9 | -22.7 |
| C=CC(=O)N1CCC[C@@H](c2c(F)cc(C(N)=O)c3[nH]c4c(c23)CCC4)C1 [Compound 10-2, (S)-8-(1-acryloylpiperidin-3-yl)-7-fluoro-1,2,3,4-tetrahydrocyclo-penta[b]indole-5-carboxamide] | 10.3 | -6.6 | 3.5 | -42.7 | 14.5 | -10.7 | 1 | -3.3 | -18.4 |
